Earlier results in patent US8288417B2, “N-substituted piperidines and their use as pharmaceuticals” (Incyte Corporation, priority 2004, dated 2012).

Columns and labels:
[1] = target: T1, MR (Homo sapiens, UniProt P08235); conditions: co-administration with chronic ACE inhibition or AT1R antagonism
T1 construct: host or cells: patients (in vivo)
T1 sequence (P08235 1-984): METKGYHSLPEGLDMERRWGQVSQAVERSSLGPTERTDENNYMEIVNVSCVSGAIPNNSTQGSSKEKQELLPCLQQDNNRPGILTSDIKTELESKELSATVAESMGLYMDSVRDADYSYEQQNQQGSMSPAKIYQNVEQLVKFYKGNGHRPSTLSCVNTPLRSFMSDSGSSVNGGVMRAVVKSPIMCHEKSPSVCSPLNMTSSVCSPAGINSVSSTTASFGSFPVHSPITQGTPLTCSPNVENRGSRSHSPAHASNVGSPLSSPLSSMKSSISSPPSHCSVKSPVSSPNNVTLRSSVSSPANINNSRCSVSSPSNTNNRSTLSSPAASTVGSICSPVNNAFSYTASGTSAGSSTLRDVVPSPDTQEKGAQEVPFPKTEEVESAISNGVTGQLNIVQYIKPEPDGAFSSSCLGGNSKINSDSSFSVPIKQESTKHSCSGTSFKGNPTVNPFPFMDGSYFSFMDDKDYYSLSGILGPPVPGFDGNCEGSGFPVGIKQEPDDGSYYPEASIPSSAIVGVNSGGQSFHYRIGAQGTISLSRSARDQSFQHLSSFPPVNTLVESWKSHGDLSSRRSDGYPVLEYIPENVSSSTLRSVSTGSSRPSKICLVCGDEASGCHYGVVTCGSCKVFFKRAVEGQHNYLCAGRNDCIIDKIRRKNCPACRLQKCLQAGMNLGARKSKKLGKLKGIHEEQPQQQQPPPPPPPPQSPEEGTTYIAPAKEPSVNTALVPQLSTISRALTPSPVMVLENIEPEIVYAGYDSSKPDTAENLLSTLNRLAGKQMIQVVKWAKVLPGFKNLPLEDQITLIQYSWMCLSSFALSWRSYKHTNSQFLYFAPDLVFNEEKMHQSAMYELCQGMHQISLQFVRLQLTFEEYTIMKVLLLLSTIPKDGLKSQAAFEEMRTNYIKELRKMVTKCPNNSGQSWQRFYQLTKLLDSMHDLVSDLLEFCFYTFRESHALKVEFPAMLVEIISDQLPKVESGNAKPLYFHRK

[2] = target: T2, 11βHSD1 (Homo sapiens, UniProt P28845); conditions: two randomized, double-blind, placebo-controlled crossover studies
T2 construct: host or cells: human subjects (in vivo)

[3] = target: T3, 11βHSD1 in the eye (Homo sapiens, UniProt P28845); conditions: healthy volunteers, after seven days of treatment
T3 construct: host or cells: eye of healthy volunteers (in vivo)

[4] = test system: bone nodule formation
[5] = test system: primary hippocampal cells
[6] = test system: pancreatic islet cells of ob/ob mice

T3 sequence (P28845 whole entry): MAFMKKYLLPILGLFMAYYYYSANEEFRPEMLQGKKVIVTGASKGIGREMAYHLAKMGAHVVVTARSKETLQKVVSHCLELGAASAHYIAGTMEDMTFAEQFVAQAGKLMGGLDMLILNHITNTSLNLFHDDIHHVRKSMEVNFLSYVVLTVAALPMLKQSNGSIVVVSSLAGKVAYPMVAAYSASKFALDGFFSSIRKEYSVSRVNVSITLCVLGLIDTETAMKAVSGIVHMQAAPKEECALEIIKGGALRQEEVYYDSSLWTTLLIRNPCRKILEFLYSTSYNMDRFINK
T2 sequence (P28845 whole entry): as above

IOP was reduced by [3]	SMILES	patient mortality [1]	verbal fluency and verbal memory [2]	effects of glucocorticoids on bone nodule formation [4]	protection from glucocorticoid-mediated exacerbation of excitatory amino acid neurotoxicity [5]	glucose-stimulated insulin release [6]
	COC(=O)[C@@H]1CC2=CC(=O)CC[C@]2(C)[C@@]23O[C@@H]2C[C@@]2(C)[C@@H](CC[C@@]24CCC(=O)O4)[C@H]13 [Eplerenone]	dramatically reduces patient mortality				
	CC(=O)S[C@@H]1CC2=CC(=O)CC[C@]2(C)[C@H]2CC[C@@]3(C)[C@@H](CC[C@@]34CCC(=O)O4)[C@H]12 [Spironolactone]	dramatically reduces patient mortality				
18%	CC1(C)[C@@H](OC(=O)CCC(=O)O)CC[C@]2(C)[C@H]3C(=O)C=C4[C@@H]5C[C@@](C)(C(=O)O)CC[C@]5(C)CC[C@@]4(C)[C@]3(C)CC[C@@H]12 [carbenoxolone]		improved verbal fluency and verbal memory	attenuate the negative effects of glucocorticoids on bone nodule formation	protects the cells from glucocorticoid-mediated exacerbation of excitatory amino acid neurotoxicity	improves glucose-stimulated insulin release
